# Source: US6706740B2, “Fungicidal heterocyclic aromatic amides and their compositions, methods of use and preparation” (Dow AgroSciences LLC, priority 1999, dated 2004)
# Tested on: Septoria tritici—SEPTTR
# Test: Leaf Blotch of Wheat, in vivo whole plant, 24 Hour Protectant
# Details: Zymoseptoria tritici, 24 h, 100 ppm spray, 24 hour protectant, wheat; control of fungal infection vs untreated plants; read-out: SEPTTR in vivo 1 Day Protectant
row,SMILES,pest or weed control at 100 ppm
1,COc1ccnc(C(=O)NC2c3ccccc3CC2(C)C)c1O (stereo not drawn) [Compound 284],25 to 74%

# Same assay, conditions: Zymoseptoria tritici, 24 h, 100 ppm spray, wheat, 24 hour protectant; control of fungal infection vs untreated plants; read-out: SEPTTR in vivo 1 Day Protectant
row,SMILES,pest or weed control at 100 ppm
1,COc1ccnc(C(=O)Nc2ccc(NC(=O)c3cccc(C(F)(F)F)c3)cc2)c1O [Compound 453],25 to 74%
2,COc1ccnc(C(=O)Nc2ccc(Sc3cccc(C(F)(F)F)c3)cc2)c1O [Compound 445],25 to 74%

# Same assay, conditions: Zymoseptoria tritici, 24 h, wheat plants sprayed at 100 ppm, inoculated after 24 hours; control of fungal infection vs untreated plants; read-out: SEPTTR in vivo 1 Day Protectant
row,SMILES,pest or weed control at 100 ppm
1,COc1ccnc(C(=O)Nc2ccc(Oc3cc(C(F)(F)F)nc(C(F)(F)F)c3)cc2)c1O [Compound 466],25 to 74%

# Tested on: not given
# Test: not given
# Details: not given
row,SMILES,melting point
1,COc1ccnc(C(=O)Nc2ccc(Oc3cc(C(F)(F)F)nc(C(F)(F)F)c3)cc2)c1O [Compound 466],198 to 200 °C
2,COc1ccnc(C(=O)Nc2ccc(NC(=O)c3cccc(C(F)(F)F)c3)cc2)c1O [Compound 453],240 to 242 °C
3,COc1ccnc(C(=O)Nc2ccc(Sc3cccc(C(F)(F)F)c3)cc2)c1O [Compound 445],167 to 169 °C
4,COc1ccnc(C(=O)NC2c3ccccc3CC2(C)C)c1O (stereo not drawn) [Compound 284],122 to 128 °C

# Tested on: Erysiphe graminis—ERYSGT
# Test: Powdery Mildew of Wheat, in vivo whole plant, 24 Hour Protectant
# Details: Erysiphe; 100 ppm spray, 24 hour protectant, wheat; control of fungal infection vs untreated plants; read-out: ERYSGT in vivo 1 Day Protectant
row,SMILES,pest or weed control at 100 ppm
1,COc1ccnc(C(=O)NC2c3ccccc3CC2(C)C)c1O (stereo not drawn) [Compound 284],< 25%

# Same assay, conditions: Erysiphe; 100 ppm spray, wheat, 24 hour protectant; control of fungal infection vs untreated plants; read-out: ERYSGT in vivo 1 Day Protectant
row,SMILES,pest or weed control at 100 ppm
1,COc1ccnc(C(=O)Nc2ccc(NC(=O)c3cccc(C(F)(F)F)c3)cc2)c1O [Compound 453],< 25%
2,COc1ccnc(C(=O)Nc2ccc(Sc3cccc(C(F)(F)F)c3)cc2)c1O [Compound 445],25 to 74%

# Same assay, conditions: Erysiphe; wheat plants sprayed at 100 ppm, inoculated after 24 hours; control of fungal infection vs untreated plants; read-out: ERYSGT in vivo 1 Day Protectant
row,SMILES,pest or weed control at 100 ppm
1,COc1ccnc(C(=O)Nc2ccc(Oc3cc(C(F)(F)F)nc(C(F)(F)F)c3)cc2)c1O [Compound 466],< 25%

# Tested on: Phytophthora infestans (PHYTIN)
# Test: microbe, parasite or virus in culture
# Assay type: cell-based
# Details: Phytophthora infestans, read-out: PHYTIN in vitro Growth Inhibition
row,SMILES,inhibition at 25 ppm
1,COc1ccnc(C(=O)Nc2ccc(Oc3cc(C(F)(F)F)nc(C(F)(F)F)c3)cc2)c1O [Compound 466],< 80%
2,COc1ccnc(C(=O)Nc2ccc(NC(=O)c3cccc(C(F)(F)F)c3)cc2)c1O [Compound 453],< 80%
3,COc1ccnc(C(=O)Nc2ccc(Sc3cccc(C(F)(F)F)c3)cc2)c1O [Compound 445],< 80%
4,COc1ccnc(C(=O)NC2c3ccccc3CC2(C)C)c1O (stereo not drawn) [Compound 284],< 80%

# Tested on: Ustilago maydis (USTIMA)
# Test: microbe, parasite or virus in culture
# Assay type: cell-based
# Details: Mycosarcoma maydis, read-out: USTIMA in vitro Growth Inhibition
row,SMILES,inhibition at 25 ppm
1,COc1ccnc(C(=O)Nc2ccc(Oc3cc(C(F)(F)F)nc(C(F)(F)F)c3)cc2)c1O [Compound 466],< 80%
2,COc1ccnc(C(=O)Nc2ccc(NC(=O)c3cccc(C(F)(F)F)c3)cc2)c1O [Compound 453],< 80%
3,COc1ccnc(C(=O)Nc2ccc(Sc3cccc(C(F)(F)F)c3)cc2)c1O [Compound 445],> 80%
4,COc1ccnc(C(=O)NC2c3ccccc3CC2(C)C)c1O (stereo not drawn) [Compound 284],< 80%

# Tested on: Stagonospora nodorum (Leptosphaeria nodorum—LEPTNO)
# Test: In vitro fungal growth inhibition, Stagonospora nodorum (LEPTNO)
# Assay type: cell-based
# Details: Leptosphaeria; 25 ppm in growth medium; read-out: LEPTNO in vitro Growth Inhibition
row,SMILES,inhibition at 25 ppm
1,COc1ccnc(C(=O)Nc2ccc(NC(=O)c3cccc(C(F)(F)F)c3)cc2)c1O [Compound 453],< 80%
2,COc1ccnc(C(=O)Nc2ccc(Sc3cccc(C(F)(F)F)c3)cc2)c1O [Compound 445],< 80%
3,COc1ccnc(C(=O)NC2c3ccccc3CC2(C)C)c1O (stereo not drawn) [Compound 284],< 80%

# Same assay, conditions: Leptosphaeria; 25 ppm in the growth medium; read-out: LEPTNO in vitro Growth Inhibition
row,SMILES,inhibition at 25 ppm
1,COc1ccnc(C(=O)Nc2ccc(Oc3cc(C(F)(F)F)nc(C(F)(F)F)c3)cc2)c1O [Compound 466],> 80%

# Tested on: Rhizoctonia solani (RHIZSO)
# Test: microbe, parasite or virus in culture
# Assay type: cell-based
# Details: Rhizoctonia solani, read-out: RHIZSO in vitro Growth Inhibition
row,SMILES,inhibition at 25 ppm
1,COc1ccnc(C(=O)Nc2ccc(Oc3cc(C(F)(F)F)nc(C(F)(F)F)c3)cc2)c1O [Compound 466],< 80%
2,COc1ccnc(C(=O)Nc2ccc(NC(=O)c3cccc(C(F)(F)F)c3)cc2)c1O [Compound 453],< 80%
3,COc1ccnc(C(=O)Nc2ccc(Sc3cccc(C(F)(F)F)c3)cc2)c1O [Compound 445],< 80%
4,COc1ccnc(C(=O)NC2c3ccccc3CC2(C)C)c1O (stereo not drawn) [Compound 284],< 80%

# Tested on: Magnaporthe grisea (Pyricularia oryzae—PYRIOR)
# Test: microbe, parasite or virus in culture
# Assay type: cell-based
# Details: Pyricularia oryzae, read-out: PYRIOR in vitro Growth Inhibition
row,SMILES,inhibition at 25 ppm
1,COc1ccnc(C(=O)Nc2ccc(Oc3cc(C(F)(F)F)nc(C(F)(F)F)c3)cc2)c1O [Compound 466],< 80%
2,COc1ccnc(C(=O)Nc2ccc(NC(=O)c3cccc(C(F)(F)F)c3)cc2)c1O [Compound 453],< 80%
3,COc1ccnc(C(=O)Nc2ccc(Sc3cccc(C(F)(F)F)c3)cc2)c1O [Compound 445],> 80%
4,COc1ccnc(C(=O)NC2c3ccccc3CC2(C)C)c1O (stereo not drawn) [Compound 284],< 80%

# Tested on: Phytophthora infestans—PHYTIN
# Test: whole plant or invertebrate
# Assay type: in vivo
# Details: Phytophthora, in Solanum lycopersicum, 24 h, read-out: PHYTIN in vivo 1 Day Protectant
row,SMILES,pest or weed control at 100 ppm
1,COc1ccnc(C(=O)Nc2ccc(Oc3cc(C(F)(F)F)nc(C(F)(F)F)c3)cc2)c1O [Compound 466],< 25%
2,COc1ccnc(C(=O)Nc2ccc(NC(=O)c3cccc(C(F)(F)F)c3)cc2)c1O [Compound 453],< 25%
3,COc1ccnc(C(=O)Nc2ccc(Sc3cccc(C(F)(F)F)c3)cc2)c1O [Compound 445],< 25%
4,COc1ccnc(C(=O)NC2c3ccccc3CC2(C)C)c1O (stereo not drawn) [Compound 284],< 25%

# Tested on: Puccinia recondita—PUCCRT
# Test: Brown Rust of Wheat, in vivo whole plant, 24 Hour Protectant
# Details: Puccinia; 100 ppm spray, 24 hour protectant, wheat; control of fungal infection vs untreated plants; read-out: PUCCRT in vivo 1 Day Protectant
row,SMILES,pest or weed control at 100 ppm
1,COc1ccnc(C(=O)NC2c3ccccc3CC2(C)C)c1O (stereo not drawn) [Compound 284],25 to 74%

# Same assay, conditions: Puccinia; 100 ppm spray, wheat, 24 hour protectant; control of fungal infection vs untreated plants; read-out: PUCCRT in vivo 1 Day Protectant
row,SMILES,pest or weed control at 100 ppm
1,COc1ccnc(C(=O)Nc2ccc(NC(=O)c3cccc(C(F)(F)F)c3)cc2)c1O [Compound 453],< 25%
2,COc1ccnc(C(=O)Nc2ccc(Sc3cccc(C(F)(F)F)c3)cc2)c1O [Compound 445],25 to 74%

# Same assay, conditions: Puccinia; wheat plants sprayed at 100 ppm, inoculated after 24 hours; control of fungal infection vs untreated plants; read-out: PUCCRT in vivo 1 Day Protectant
row,SMILES,pest or weed control at 100 ppm
1,COc1ccnc(C(=O)Nc2ccc(Oc3cc(C(F)(F)F)nc(C(F)(F)F)c3)cc2)c1O [Compound 466],< 25%

# Tested on: Leptosphaeria nodorum—LEPTNO
# Test: Glume Blotch of Wheat, in vivo whole plant, 24 Hour Protectant
# Details: 100 ppm spray, wheat, 24 hour protectant; control of fungal infection vs untreated plants
row,SMILES,LEPTNO in vivo 1 Day Protectant
1,COc1ccnc(C(=O)Nc2ccc(Sc3cccc(C(F)(F)F)c3)cc2)c1O [Compound 445],+ +

# Same assay, conditions: Leptosphaeria; 100 ppm spray, 24 hour protectant, wheat; control of fungal infection vs untreated plants; read-out: LEPTNO in vivo 1 Day Protectant
row,SMILES,pest or weed control at 100 ppm
1,COc1ccnc(C(=O)NC2c3ccccc3CC2(C)C)c1O (stereo not drawn) [Compound 284],25 to 74%

# Same assay, conditions: Leptosphaeria; 100 ppm spray, wheat, 24 hour protectant; control of fungal infection vs untreated plants; read-out: LEPTNO in vivo 1 Day Protectant
row,SMILES,pest or weed control at 100 ppm
1,COc1ccnc(C(=O)Nc2ccc(NC(=O)c3cccc(C(F)(F)F)c3)cc2)c1O [Compound 453],25 to 74%

# Same assay, conditions: Leptosphaeria; wheat plants sprayed at 100 ppm, inoculated after 24 hours; control of fungal infection vs untreated plants; read-out: LEPTNO in vivo 1 Day Protectant
row,SMILES,pest or weed control at 100 ppm
1,COc1ccnc(C(=O)Nc2ccc(Oc3cc(C(F)(F)F)nc(C(F)(F)F)c3)cc2)c1O [Compound 466],25 to 74%

# Tested on: Mycosphaerella graminicola (Septoria tritici—SEPTTR)
# Test: In vitro fungal growth inhibition, Mycosphaerella graminicola (SEPTTR)
# Assay type: cell-based
# Details: Zymoseptoria tritici; 25 ppm in growth medium; read-out: SEPTTR in vitro Growth Inhibition
row,SMILES,inhibition at 25 ppm
1,COc1ccnc(C(=O)Nc2ccc(NC(=O)c3cccc(C(F)(F)F)c3)cc2)c1O [Compound 453],< 80%
2,COc1ccnc(C(=O)Nc2ccc(Sc3cccc(C(F)(F)F)c3)cc2)c1O [Compound 445],> 80%
3,COc1ccnc(C(=O)NC2c3ccccc3CC2(C)C)c1O (stereo not drawn) [Compound 284],< 80%

# Same assay, conditions: Zymoseptoria tritici; 25 ppm in the growth medium; read-out: SEPTTR in vitro Growth Inhibition
row,SMILES,inhibition at 25 ppm
1,COc1ccnc(C(=O)Nc2ccc(Oc3cc(C(F)(F)F)nc(C(F)(F)F)c3)cc2)c1O [Compound 466],< 80%
